The text below walks through data of ChEMBL document CHEMBL1143717, “Biologically active natural products from Mongolian medicinal plants Scorzonera divaricata and Scorzonera pseudodivaricata” (J Nat Prod, 2007).

Structures are written as SMILES. Calls of active or inactive are those of the source. The rule behind the calls is not given here.

The test system of this assay is Radical scavenging activity. Nature of the assay: Antioxidant activity assessed as DPPH radical scavenging activity. The format is functional. A general note: Loss of DPPH colour is used to gauge radical scavenging.

Regarding `CC1=CC(=O)C2=C(C)C[C@H](OC(=O)CCc3ccc(OC4O[C@H](CO)[C@@H](O)[C@H](O)[C@H]4O)cc3)[C@@H]3[C@H](OC(=O)[C@H]3C)[C@@H]12` (some centres not stated), the result was inactive.
Then `CCCCCC(=O)O[C@H]1[C@H](Oc2cc(CC(=O)CCc3ccc(O)cc3)c(O)c(C(=O)O)c2)O[C@H](CO)[C@@H](O)[C@@H]1O`, with “inactive”.
